Laboratory results as given in patent publication US6596500B1, “Binding of retinoids to M6P/IGF-II receptor” (The General Hospital Corporation, priority 1998, dated 2003).

Key:
[1] = target: T1, M6P/IGF2R (300 kDa protein) (Rattus norvegicus, UniProt G3V824); test: [3H]RA photoaffinity labeling of the 300 kDa protein; type: binding; details: for Inhibition of [3H]RA photolabeling/binding to M6P/IGF2R by nonradioactive competitor: 25- to 50-fold molar excess (50 μM) competitor added before photolysis
T1 construct: about 100 μg of proteins of membrane preparations or serum; from tissue; host or cells: membrane preparations of cultured neonatal Sprague-Dawley rat cardiac myocytes
T1 sequence (G3V824 36-2481): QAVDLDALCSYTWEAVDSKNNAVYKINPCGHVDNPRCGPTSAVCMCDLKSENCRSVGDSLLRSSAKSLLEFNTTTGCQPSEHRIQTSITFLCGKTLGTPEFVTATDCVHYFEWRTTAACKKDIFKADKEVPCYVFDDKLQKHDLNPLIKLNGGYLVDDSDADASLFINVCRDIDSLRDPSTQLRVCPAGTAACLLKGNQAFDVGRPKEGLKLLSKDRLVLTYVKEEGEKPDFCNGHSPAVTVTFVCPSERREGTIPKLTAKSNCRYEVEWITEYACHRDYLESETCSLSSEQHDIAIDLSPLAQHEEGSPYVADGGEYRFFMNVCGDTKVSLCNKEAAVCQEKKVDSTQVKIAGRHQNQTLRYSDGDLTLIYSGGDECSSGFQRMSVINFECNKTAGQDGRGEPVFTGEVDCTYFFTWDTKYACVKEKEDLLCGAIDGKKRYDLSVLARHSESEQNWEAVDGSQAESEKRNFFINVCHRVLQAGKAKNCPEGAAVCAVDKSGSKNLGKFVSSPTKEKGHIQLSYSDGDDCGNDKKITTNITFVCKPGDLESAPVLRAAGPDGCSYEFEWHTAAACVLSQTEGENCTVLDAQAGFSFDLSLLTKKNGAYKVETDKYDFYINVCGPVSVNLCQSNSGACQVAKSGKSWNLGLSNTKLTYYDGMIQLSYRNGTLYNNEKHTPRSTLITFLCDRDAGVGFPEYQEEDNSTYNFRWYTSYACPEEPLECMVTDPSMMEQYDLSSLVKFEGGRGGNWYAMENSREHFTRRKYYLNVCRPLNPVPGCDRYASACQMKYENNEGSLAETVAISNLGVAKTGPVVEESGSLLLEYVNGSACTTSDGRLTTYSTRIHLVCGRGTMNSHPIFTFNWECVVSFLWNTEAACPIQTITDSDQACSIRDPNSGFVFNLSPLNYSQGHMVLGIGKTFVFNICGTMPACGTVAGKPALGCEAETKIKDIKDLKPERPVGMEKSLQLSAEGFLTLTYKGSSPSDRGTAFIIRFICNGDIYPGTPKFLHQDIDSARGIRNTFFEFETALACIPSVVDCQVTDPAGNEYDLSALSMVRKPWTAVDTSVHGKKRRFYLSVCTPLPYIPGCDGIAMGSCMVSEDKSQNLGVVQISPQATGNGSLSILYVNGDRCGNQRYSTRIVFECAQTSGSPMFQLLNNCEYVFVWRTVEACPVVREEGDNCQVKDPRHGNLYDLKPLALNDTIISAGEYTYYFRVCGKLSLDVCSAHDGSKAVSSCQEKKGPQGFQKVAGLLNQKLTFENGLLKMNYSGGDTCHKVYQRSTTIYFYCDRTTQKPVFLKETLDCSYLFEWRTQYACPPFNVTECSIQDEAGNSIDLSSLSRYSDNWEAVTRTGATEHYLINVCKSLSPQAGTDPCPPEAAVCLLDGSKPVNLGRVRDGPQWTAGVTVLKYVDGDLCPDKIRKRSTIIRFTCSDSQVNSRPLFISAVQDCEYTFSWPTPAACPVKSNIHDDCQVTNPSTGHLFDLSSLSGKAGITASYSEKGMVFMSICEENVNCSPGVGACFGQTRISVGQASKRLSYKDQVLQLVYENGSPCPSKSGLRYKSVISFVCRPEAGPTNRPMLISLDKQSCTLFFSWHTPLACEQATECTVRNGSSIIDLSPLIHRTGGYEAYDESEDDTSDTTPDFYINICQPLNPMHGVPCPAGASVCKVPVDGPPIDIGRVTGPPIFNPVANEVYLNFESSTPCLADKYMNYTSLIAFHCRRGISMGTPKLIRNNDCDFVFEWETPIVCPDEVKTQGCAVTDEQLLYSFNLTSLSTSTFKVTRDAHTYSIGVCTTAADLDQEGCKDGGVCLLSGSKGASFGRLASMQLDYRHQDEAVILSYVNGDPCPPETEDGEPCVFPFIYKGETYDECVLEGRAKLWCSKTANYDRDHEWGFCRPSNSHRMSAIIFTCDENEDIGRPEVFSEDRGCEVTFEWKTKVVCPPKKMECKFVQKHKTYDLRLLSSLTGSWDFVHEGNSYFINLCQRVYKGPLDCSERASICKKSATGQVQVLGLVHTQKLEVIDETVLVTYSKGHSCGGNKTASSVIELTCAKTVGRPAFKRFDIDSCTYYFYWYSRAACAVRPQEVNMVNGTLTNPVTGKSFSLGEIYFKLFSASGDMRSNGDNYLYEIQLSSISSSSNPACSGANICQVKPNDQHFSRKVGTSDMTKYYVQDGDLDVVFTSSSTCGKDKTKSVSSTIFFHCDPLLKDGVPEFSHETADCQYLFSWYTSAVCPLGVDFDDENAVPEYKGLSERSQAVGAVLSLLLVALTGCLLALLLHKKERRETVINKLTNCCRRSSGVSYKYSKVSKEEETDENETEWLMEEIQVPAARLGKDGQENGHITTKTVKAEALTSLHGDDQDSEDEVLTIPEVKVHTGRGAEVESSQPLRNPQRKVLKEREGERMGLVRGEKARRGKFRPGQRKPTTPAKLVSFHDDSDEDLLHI
Description: Photoaffinity Labeling Photoaffinity labeling was performed essentially according to the methods described in Bernstein et al., 1995, Proc. Natl. Acad. Sci. USA 92:654-658. […] After the ethanol has been evaporated with nitrogen, about 100 μg of proteins of membrane preparations or serum [serum proteins were first concentrated using a Biomax-100K Centrifugal Filter Device (Millipore)] were then added to each tube. The final volume was adjusted to 100 μl with 50 mM Tris buffer (pH 7.4) containing protease inhibitors (5 mM EDTA, 5 mM EGTA, 0.1 mM phenylmethylsulfonyl fluoride, 0.05% NaN3, 20 μg/ml aprotinin, 10 μg/ml benzamidine and 12.5 μg/ml chymostatin) and 50 μM butylated hydroxytoluene (a radical scavenger, used to minimize the non-specific labeling) for a final concentration of 1 μM labeled retinoic acid. The samples were incubated at room temperature with agitation for 1 hour in the dark. The samples were exposed to an intense 365-nm UV light source (Model B 100AP, UPland, CA) for 7 min. […] To remove the non-covalently bound ligands, the photolabeled samples were extracted with chloroform/methanol (2:1), or washed once by centrifugation for membrane samples only).
Fluorography The resultant protein pellets were dissolved in SDS sample buffer containing 5% β-mercapto-ethanol and heated at 100° C. for 5 min. These samples were then run on 7% polyacrylamide gels (30:0.2, acrylamide/bisacrylamide ratio), using conventional SDS/PAGE techniques. After electrophoresis, the gels were stained with Coomassie blue, soaked in Amplifier (Amersham, Life Science) for 30 minutes, dried by a vacuum gel dryer and then exposed to Hyperfilm-TM X-ray films (Amersham, Life Science) at […] for 1-3 days.

neonatal rat fibroblasts = test: Immunofluorescence of cathepsin B distribution in fibroblasts; type: cell-based; details: RAR antagonist with RA
Excerpt: FIGS. 8A and 8B are photomicrographs showing effect of retinoic acid on the distribution of cathepsin B in neonatal rat fibroblasts. […] The enzyme was found mainly in the perinuclear area. […] Bar represents 4 μm.
Since biosynthetic transport of lysosomal enzymes from the TGN to endosomes/lysosomes is mainly mediated by the M6P/IGF2R (Sohar et al., 1998, Biochem. J. 330:903-908), an enhanced trafficking of the receptor should lead to an increased translocation of the M6P-containing lysosomal enzymes from the TGN to lysosomes. To test this, we examined the effect of RA on the intracellular distribution of cathepsin B, a lysosomal protease known to be transported in a M6P-dependent manner in fibroblasts (Hanewinkel et al., 1987, J. Diol. Chem. 262:12351-12355). […] The distribution was similar to that of M6P/IGF2R (shift from perinuclear area to cytoplasmic vesicles throughout the cytoplasm).
(§1) Intracellular Trafficking Materials Retinoic acid was obtained from Sigma Chem. Co. (St. Louis, Mo.). The synthetic retinoids used (AGN193109, TTNPB) were produced by Allergan Inc. (Irvine, Calif.). Stably-transfected P388D1 cells re-expressing the M6P/IGF2R were provided by Dr. William S. Sly (St. Louis University). The rabbit polyclonal antibody against the rat M6P/IGF-II receptor was a gift from Dr. R.G. MacDonald (University of Nebraska). […]

M6P/IGF2R = M6P/IGF2R (Rattus norvegicus, UniProt G3V824); test: Immunofluorescence of M6P/IGF2R distribution in fibroblasts; type: cell-based; set-up: endogenous in cells; host or cells: primary neonatal rat cardiac fibroblasts; details: RAR antagonist with RA
M6P/IGF2R, sequence (G3V824 36-2481): as above
Excerpt: FIGS. 7A and 7B are photo micrographs showing the effect of retinoic acid on the distribution of the M6P/IGF2R in neonatal rat fibroblasts. […] The receptor was concentrated primarily in the perinuclear structure (probably the TGN area). […] Bar represents 4 μm.
To determine if RA affects intracellular trafficking of the M6P/IGF2R, distribution of the receptor in neonatal rat fibroblasts with or without RA treatment was visualized by immunofluorescence. The primary antibody used to target the receptor was a polyclonal anti-rat M6P/IGF2R (full length) rabbit IgG with high specificity. A non-immuno-rabbit IgG was used as a negative control. As indicated by fluorescence (FIGS. 7A and 7B), the M6P/IGF2R in the fibroblasts is normally concentrated primarily in the perinuclear structure (probably the TGN). […] This indicated a potentiating effect of RA on the trafficking of the M6P/IGF2R from the TGN to the endosomes/lysosomes.
as §1

P388D1 cells = test: Morphology, growth and apoptosis of P388D1 cells overexpressing M6P/IGF2R; type: cell-based, mouse; details: P388D1 cells overexpressing M6P/IGF2R
Description: FIG. 10 is a graph showing the effect of RA treatment on growth rate of P388D1 cells overexpressing M6P/IGF2R protein and P388D1 controls. Open circles, vector control cells without RA treatment; closed circles, vector control cells with 1 μM RA treatment; open triangles, overexpressing cells without RA treatment; closed triangles overexpressing cells with 1 μM RA treatment.
We examined M6P/IGF2R-mediated effects of RA in mouse macrophage P388D1 cells, which are the best characterized cells that lack the M6P/IGF2R protein.

[2] = target: T2, partially-purified neonatal rat serum IGF2R (Rattus norvegicus, UniProt G3V824); test: Competitive radioligand (10 nM [3H]RA) binding assay; details: n=3, read-out: IC50 (50% inhibitory concentration) for [3H]RA binding
T2 construct: both intact (300 kDa) and truncated (260 kDa) forms of M6P/IGF-II receptor exist in the serum; from tissue; host or cells: neonatal rat serum, FPLC Sepharose-12 fraction
T2 sequence (G3V824 36-2481): as above
Description: Partially purified M6P/IGF-II receptors from neonatal rat serum was prepared using a Fast Protein Liquid Chromatography (FPLC) system equipped with a Sepharose-12 column (Pharmacia). The partially purified M6P/IGF2R protein was diluted in binding buffer (20 mM Tris-HCl, pH 8.0/150 mM NaCl/1mM DTT/protease inhibitors) at a concentration of 50 Ag/ml. […] Incubation was carried out at 22° C. for 2 h in the dark. After the incubation, 0.2 ml chilled charcoal-dextran suspension (charcoal/dextran/glycerol=0.5%/0.05%/20%) was added to remove the unbound ligand.

[3] = tested on: neonatal rat cardiac myocytes; test: Growth, morphology and apoptosis of cardiac myocytes; type: cell-based; details: 48 hours
Description: Cultured neonatal rat cardiac myocytes were known to express high levels of the M6P/IGF2R protein. The effect of RA on the growth of normal, neonatal rat cardiac myocytes was examined.
Cell Isolation and Culture For the photoaffinity labeling experiments, cardiac myocytes were isolated from 1-day-old neonatal Sprague-Dawley rats, using the Neonatal Cardiomyocyte Isolation System (Worthington). The isolated cell were cultured on Petri dishes with culture medium (F-10 nutrient mixture/10% horse serum/5% fetal bovine serum/50 μg/ml streptomycin/50 units/ml penicillin G). Cells were used for experiments after 2-6 days of culture.

Molecule: CC1=C(/C=C/C(C)=C\C=C\C(C)=C\C(=O)O)C(C)(C)CCC1 [9-cis-RA, 9-cis-retinoic acid]
- Inhibition of [3H]RA photolabeling/binding to M6P/IGF2R by nonradioactive competitor [1]: inhibited the binding

Molecule: CC1=C(/C=C/C(C)=C/C=C/C(C)=C\C(=O)O)C(C)(C)CCC1 [13-cis-RA, 13-cis-retinoic acid]
- Inhibition of [3H]RA photolabeling/binding to M6P/IGF2R by nonradioactive competitor [1]: inhibited the binding

Molecule: Cc1ccc(C2=CCC(C)(C)c3ccc(C#Cc4ccc(C(=O)O)cc4)cc32)cc1 [AGN193109]
- Blocking of RA effect on cathepsin B distribution by RAR antagonist (neonatal rat fibroblasts): neither blocked by the RAR antagonist
- Blocking of RA effect on M6P/IGF2R distribution by RAR antagonist (M6P/IGF2R): neither blocked by the RAR antagonist

Molecule: O=C[C@@H](O)[C@@H](O)[C@H](O)[C@H](O)COP(=O)(O)O [M6P, mannose 6-phosphate]
- [3H]RA labeling of M6P/IGF-II receptor, presence vs absence of M6P ([1]; 5 mM M6P, measured by NIH Image, n=3): 2 fold
- Enhancement of cross-linking of [3H]RA to M6P/IGF-II receptor ([1]; [3H]RA affinity photolabeling): significantly enhanced
- Inhibition of [3H]RA binding to M6P/IGF-II receptor by other receptor ligands ([1]; [3H]RA affinity photolabeling): Neither M6P nor IGF-II inhibited

Molecule: CC1=C(/C=C/C(C)=C/C=C/C(C)=C/C=O)C(C)(C)CCC1 [retinal]
- Induction of the RA-like effects on morphology, proliferation and apoptosis (P388D1 cells): similarly induced

Molecule: CC1=C(/C=C/C(C)=C/C=C/C(C)=C/CO)C(C)(C)CCC1 [retinol]
- IC50 [2]: 0.12 ± 0.018 µM
- Cell morphology and growth [3]: exerted effects on cell morphology and growth similar to the effects of RA
- Inhibition of [3H]RA photolabeling/binding to M6P/IGF2R by nonradioactive competitor [1]: inhibited the binding
- Induction of the RA-like effects on morphology, proliferation and apoptosis (P388D1 cells): similarly induced

Molecule: IGF-II: insulin-like growth factor II (a protein), ligand of the M6P/IGF-II receptor
- Inhibition of [3H]RA binding to M6P/IGF-II receptor by other receptor ligands ([1]; [3H]RA affinity photolabeling): Neither M6P nor IGF-II inhibited

Molecule: retinol acetate
- IC50 [2]: 0.135 ± 0.03 µM
- Cell morphology and growth [3]: exerted effects on cell morphology and growth similar to the effects of RA
- Inhibition of [3H]RA photolabeling/binding to M6P/IGF2R by nonradioactive competitor [1]: inhibited the binding
- Induction of the RA-like effects on morphology, proliferation and apoptosis (P388D1 cells): similarly induced
